Experimental data from patent publication US20250250230A1, “HETEROCYCLIC COMPOUND” (TAKEDA PHARMACEUTICAL COMPANY LIMITED, priority 2022, published 2025).

molecular target: T1, human orexin type 2 receptor (Homo sapiens, UniProt O43614); test: Measurement of orexin type 2 receptor agonist activity (calcium fluorescence, Fluo-4 AM, FDSS); format: cell-based; conditions: test compound 3 μM; CHO cells expressing human OX2 receptor; DMSO = 0%, orexin A (human) = 100%
T1 construct: expressed in transfected cells
T1 sequence (O43614 1-444): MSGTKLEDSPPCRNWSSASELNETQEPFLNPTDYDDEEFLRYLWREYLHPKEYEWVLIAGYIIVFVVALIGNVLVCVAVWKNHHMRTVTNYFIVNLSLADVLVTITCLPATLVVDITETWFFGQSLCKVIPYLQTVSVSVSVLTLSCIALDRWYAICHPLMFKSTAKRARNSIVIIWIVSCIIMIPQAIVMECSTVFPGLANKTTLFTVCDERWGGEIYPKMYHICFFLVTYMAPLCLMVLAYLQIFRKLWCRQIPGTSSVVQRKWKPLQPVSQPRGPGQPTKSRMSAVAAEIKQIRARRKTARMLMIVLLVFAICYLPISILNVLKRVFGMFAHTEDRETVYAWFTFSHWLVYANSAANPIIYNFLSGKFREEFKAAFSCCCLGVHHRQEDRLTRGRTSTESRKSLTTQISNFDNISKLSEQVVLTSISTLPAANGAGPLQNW
Text: To obtain a cell clone stably expressing human orexin type 2 receptor, human orexin type 2 receptor cDNA was inserted into pcDNA3.1(+) plasmid vector (Invitrogen), and a plasmid DNA for expression of human orexin type 2 receptor (pcDNA3.1(+)/hOX2R) was cloned. The plasmid DNA was introduced into CHO-K1 cell by an electroporation method, and human orexin type 2 receptor expressing clone cells were obtained by limiting dilution method by using G418 drug resistance as a selection marker.
CHO cells forcibly expressing human OX2 receptor were seeded in each well of 384 well black transparent bottom plate (BD Falcon) at 10,000 cells/well, and cultured for one day in a 5% CO2 incubator at 37° C. After removal of the medium in the cell plate, assay buffer A containing a calcium indicator (HBSS (Thermo Fisher Scientific), 20 mM HEPES (Thermo Fisher Scientific), 0.1% BSA (Sigma-Aldrich), 2.5 μg/mL Fluo-4 AM (DOJINDO Chemical), 0.08% Pluronic F127 (DOJINDO Chemical), 1.25 mM probenecid (DOJINDO Chemical)) was added at 30 μL/well. The plate was stood for 30 min in a 5% CO2 incubator at 37° C., and further stood at room temperature for 30 min. A test compound prepared by diluting with assay buffer B (HBSS, 20 mM HEPES, 0.1% BSA) was added at 10 μL/well, and the fluorescence value was measured by FDSSμCELL (Hamamatsu Photonics K.K.) every one sec for 1 min, and thereafter every two sec for […]. The activity (%) of the test compound was calculated assuming that variation in the fluorescence value when DMSO was added instead of the test compound was 0%, and variation in the fluorescence value when orexin A (human) (PEPTIDE INSTITUTE, INC.) was added at the final concentration of 10 nM was 100%.

OX2R agonist activity (3 μM, %) [%]	Compound
88	Cc1noc(C2(NS(C)(=O)=O)CCN(C(=O)[C@@H]3C[C@@]3(F)c3ccccc3-c3c(F)cccc3F)C2)n1 (mixture of isomers) [Example 421, a mixture of N-[(3R)-1-[(1S,2S)-2-(2′,6′-difluoro[1,1′-biphenyl]-2-yl)-2-fluorocyclopropane-1-carbonyl]-3-(3-methyl-1,2,4-oxadiazol-5-yl)pyrrolidin-3-yl]methanesulfonamide and N-[(3S)-1-[(1S,2S)-2-(2′,6′-difluoro[1,1′-biphenyl]-2-yl)-2-fluorocyclopropane-1-carbonyl]-3-(3-methyl-1,2,4-oxadiazol-5-yl)pyrrolidin-3-yl]methanesulfonamide]
75	Cc1nnc(C2(NS(C)(=O)=O)CCN(C(=O)[C@@H]3C[C@@]3(F)c3ccccc3-c3c(F)cccc3F)C2)o1 (mixture of isomers) [Example 422, a mixture of N-[(3R)-1-[(1S,2S)-2-(2′,6′-difluoro[1,1′-biphenyl]-2-yl)-2-fluorocyclopropane-1-carbonyl]-3-(5-methyl-1,3,4-oxadiazol-2-yl)pyrrolidin-3-yl]methanesulfonamide and N-[(3S)-1-[(1S,2S)-2-(2′,6′-difluoro[1,1′-biphenyl]-2-yl)-2-fluorocyclopropane-1-carbonyl]-3-(5-methyl-1,3,4-oxadiazol-2-yl)pyrrolidin-3-yl]methanesulfonamide]
81	Cc1cccc(F)c1-c1ccccc1C1CC1C(=O)N1CCC(NS(C)(=O)=O)C1 (racemic) [Example 3, a mixture of rac-N-{(3R)-1-[(1R,2R)-2-(2′-fluoro-6′-methyl[1,1′-biphenyl]-2-yl)cyclopropane-1-carbonyl]pyrrolidin-3-yl}methanesulfonamide and rac-N-{(3S)-1-[(1R,2R)-2-(2′-fluoro-6′-methyl[1,1′-biphenyl]-2-yl)cyclopropane-1-carbonyl]pyrrolidin-3-yl}methanesulfonamide]
102	CS(=O)(=O)NC1CCN(C(=O)C2CC2c2ccccc2-c2c(F)cccc2F)C1 (racemic) [Example 4, a mixture of rac-N-{(3R)-1-[(1R,2R)-2-(2′,6′-difluoro[1,1′-biphenyl]-2-yl)cyclopropane-1-carbonyl]pyrrolidin-3-yl}methanesulfonamide and rac-N-{(3S)-1-[(1R,2R)-2-(2′,6′-difluoro[1,1′-biphenyl]-2-yl)cyclopropane-1-carbonyl]pyrrolidin-3-yl}methanesulfonamide]
80	CS(=O)(=O)NC1CCN(C(=O)C2CC2c2ccccc2-c2ccc(F)cc2F)C1 (racemic) [Example 10, a mixture of rac-N-{(3R)-1-[(1R,2R)-2-(2′,4′-difluoro[1,1′-biphenyl]-2-yl)cyclopropane-1-carbonyl]pyrrolidin-3-yl}methanesulfonamide and rac-N-{(3S)-1-[(1R,2R)-2-(2′,4′-difluoro[1,1′-biphenyl]-2-yl)cyclopropane-1-carbonyl]pyrrolidin-3-yl}methanesulfonamide]
66	CS(=O)(=O)NC1CCN(C(=O)C2CC2c2ccccc2-c2ccccc2F)C1 (racemic) [Example 12, a mixture of rac-N-{(3R)-1-[(1R,2R)-2-(2′-fluoro[1,1′-biphenyl]-2-yl)cyclopropane-1-carbonyl]pyrrolidin-3-yl}methanesulfonamide and rac-N-{(3S)-1-[(1R,2R)-2-(2′-fluoro[1,1′-biphenyl]-2-yl)cyclopropane-1-carbonyl]pyrrolidin-3-yl}methanesulfonamide]
92	CS(=O)(=O)NC1CCN(C(=O)C2CC2c2ccccc2-c2c(F)cccc2Cl)C1 (racemic) [Example 15, a mixture of rac-N-{(3R)-1-[(1R,2R)-2-(2′-chloro-6′-fluoro[1,1′-biphenyl]-2-yl)cyclopropane-1-carbonyl]pyrrolidin-3-yl}methanesulfonamide and rac-N-{(3S)-1-[(1R,2R)-2-(2′-chloro-6′-fluoro[1,1′-biphenyl]-2-yl)cyclopropane-1-carbonyl]pyrrolidin-3-yl}methanesulfonamide]
104	CS(=O)(=O)NC1CCN(C(=O)C2CC2c2c(F)cccc2-c2c(F)cccc2F)C1 (racemic) [Example 26, a mixture of rac-N-{(3R)-1-[(1R,2R)-2-(2′,3,6′-trifluoro[1,1′-biphenyl]-2-yl)cyclopropane-1-carbonyl]pyrrolidin-3-yl}methanesulfonamide and rac-N-{(3S)-1-[(1R,2R)-2-(2′,3,6′-trifluoro[1,1′-biphenyl]-2-yl)cyclopropane-1-carbonyl]pyrrolidin-3-yl}methanesulfonamide]
98	CCS(=O)(=O)NC1CCN(C(=O)C2CC2c2ccccc2-c2c(F)cccc2F)C1 (racemic) [Example 27, a mixture of rac-N-{(3R)-1-[(1R,2R)-2-(2′,6′-difluoro[1,1′-biphenyl]-2-yl)cyclopropane-1-carbonyl]pyrrolidin-3-yl}ethanesulfonamide and rac-N-{(3S)-1-[(1R,2R)-2-(2′,6′-difluoro[1,1′-biphenyl]-2-yl)cyclopropane-1-carbonyl]pyrrolidin-3-yl}ethanesulfonamide]
103	CCS(=O)(=O)NC1CCCN(C(=O)C2CC2c2ccccc2-c2c(F)cccc2F)C1 (racemic) [Example 28, a mixture of rac-N-{(3R)-1-[(1R,2R)-2-(2′,6′-difluoro[1,1′-biphenyl]-2-yl)cyclopropane-1-carbonyl]piperidin-3-yl}ethanesulfonamide and rac-N-{(3S)-1-[(1R,2R)-2-(2′,6′-difluoro[1,1′-biphenyl]-2-yl)cyclopropane-1-carbonyl]piperidin-3-yl}ethanesulfonamide]
101	CS(=O)(=O)NC1CCCN(C(=O)C2CC2c2c(F)cccc2-c2c(F)cccc2F)C1 (racemic) [Example 31, a mixture of rac-N-{(3R)-1-[(1R,2R)-2-(2′,3,6′-trifluoro[1,1′-biphenyl]-2-yl)cyclopropane-1-carbonyl]piperidin-3-yl}methanesulfonamide and rac-N-{(3S)-1-[(1R,2R)-2-(2′,3,6′-trifluoro[1,1′-biphenyl]-2-yl)cyclopropane-1-carbonyl]piperidin-3-yl}methanesulfonamide]
102	CS(=O)(=O)NC1CCCN(C(=O)C2CC2c2c(F)cccc2-c2c(F)cccc2F)CC1 (racemic) [Example 32, a mixture of rac-N-{(4R)-1-[(1R,2R)-2-(2′,3,6′-trifluoro[1,1′-biphenyl]-2-yl)cyclopropane-1-carbonyl]azepan-4-yl}methanesulfonamide and rac-N-{(4S)-1-[(1R,2R)-2-(2′,3,6′-trifluoro[1,1′-biphenyl]-2-yl)cyclopropane-1-carbonyl]azepan-4-yl}methanesulfonamide]
101	O=C(C1CC1c1ccccc1-c1c(F)cccc1F)N1CCC(NS(=O)(=O)C2CC2)C1 (racemic) [Example 37, a mixture of rac-N-{(3R)-1-[(1R,2R)-2-(2′,6′-difluoro[1,1′-biphenyl]-2-yl)cyclopropane-1-carbonyl]pyrrolidin-3-yl}cyclopropanesulfonamide and rac-N-{(3S)-1-[(1R,2R)-2-(2′,6′-difluoro[1,1′-biphenyl]-2-yl)cyclopropane-1-carbonyl]pyrrolidin-3-yl}cyclopropanesulfonamide]
106	CS(=O)(=O)NC1CCCN(C(=O)C2CC2c2ccccc2-c2c(F)cccc2F)CC1 (racemic) [Example 38, a mixture of rac-N-{(4R)-1-[(1R,2R)-2-(2′,6′-difluoro[1,1′-biphenyl]-2-yl)cyclopropane-1-carbonyl]azepan-4-yl}methanesulfonamide and rac-N-{(4S)-1-[(1R,2R)-2-(2′,6′-difluoro[1,1′-biphenyl]-2-yl)cyclopropane-1-carbonyl]azepan-4-yl}methanesulfonamide]
